Assay: Formation as a metabolite in the mammalian system
Design: species or system mammal
Conditions: Example 19 is formed in vivo when Example 14 is administered
Experimental: For example, Example 19, (5-{(E)-2-(3-{6-[1-methyl-1-(methylsulfonyl)ethyl]-8-quinolinyl}phenyl)-1-[4-(methylslfonyl)phenyl]ehtenyl}-1,2,4-oxadiazol-3-yl)methanol; [drawing 2]
is administered. Accordingly, the present invention includes prodrugs that form PDE4 inhibitors in vivo as a metabolite after administering such prodrugs to a mammal. Further, this invention includes a method of treatment by a step of administering a prodrug to form in vivo an effective amount of a PDE4 inhibitor described by Formula I.

Row | SMILES | metabolite formation in vivo
1 | CC(C)(c1cc(-c2cccc(/C=C(\c3ccc(S(C)(=O)=O)cc3)c3nc(CO)no3)c2)c2ncccc2c1)S(C)(=O)=O [Example 19, (5-{(E)-2-(3-{6-[1-methyl-1-(methylsulfonyl)ethyl]-8-quinolinyl}phenyl)-1-[4-(methylsulfonyl)phenyl]ethenyl}-1,2,4-oxadiazol-3-yl)methanol] | formed as a metabolite in the mammalian system
2 | Cc1noc(/C(=C/c2cccc(-c3cc(C(C)(C)S(C)(=O)=O)cc4cccnc34)c2)c2ccc(S(C)(=O)=O)cc2)n1 [Example 14, 6-[1-methyl-1-(methylsulfonyl)ethyl]-8-(3-{(E/Z)-2-(3-methyl-1,2,4-oxadiazol-5-yl)-2-[4-(methylsulfonyl)phenyl]ethenyl}phenyl)quinoline] | formed in vivo as a metabolite

Source: patent publication US6410563B1, “Substituted 8-arylquinoline phosphodiesterase-4 inhibitors” (Merck Frosst Canada & Co., priority 1999, dated 2002)
